Data set [1] addresses T1, Histone deacetylase 2 (Homo sapiens, UniProt Q92769). The experiment in a line: Inhibition of HDAC2 in human SMMC7721 cells assessed as increase in H3K9 acetylation at 1uM incubated for 48 hrs by DAPI staining based confocal fluorescence microscopy. The class given is cell-based.
Data set [2] relates to SMMC-7721. The experiment in a line: Cell cycle arrest in human SMMC7721 cells assessed as accumulation at S phase incubated for 48 hrs by propidium iodide staining-based flow cytometry. Type of data set: functional.
The subject of data set [3] is SMMC-7721. The experiment in a line: Induction of apoptosis in human SMMC7721 cells assessed as late apoptotic cells at 1 uM incubated for 48 hrs by Annexin-V-FITC/propidium iodide staining based flow cytometry (Rvb=1.73%). Type of data set: functional.
For data set [4], the system named is SMMC-7721. The experiment in a line: Inhibition of colony formation in human SMMC7721 cells incubated for 10 days by crystal violet staining based assay. Type of data set: functional, cell-based.
The test system of data set [5] is A549. The experiment in a line: Antiproliferative activity against human A549 cells assessed as reduction in cell growth at 2 uM incubated for 72 hrs by CCK-8 assay relative to control. Type of data set: functional. The following applies: A549, 72 h.
Data set [6] has as its system SMMC-7721. The data set can be described thus: Induction of apoptosis in human SMMC7721 cells assessed as late apoptotic cells at 4 uM incubated for 48 hrs by Annexin-V-FITC/propidium iodide staining based flow cytometry (Rvb=1.73%). The class given is functional.
Data set [7] has as its system HCT-116. The data set can be described thus: Antiproliferative activity against human HCT116 cells assessed as reduction in cell growth at 8 uM incubated for 72 hrs by CCK-8 assay relative to control. Type of data set: functional. The conditions noted are these: HCT-116, 72 h.
For data set [8], the system named is SMMC-7721. The data set can be described thus: Induction of apoptosis in human SMMC7721 cells assessed as late apoptotic cells at 0.25 uM incubated for 48 hrs by Annexin-V-FITC/propidium iodide staining based flow cytometry (Rvb=1.73%). Type of data set: functional.
Data set [9] deals with SMMC-7721. The experiment in a line: Induction of apoptosis in human SMMC7721 cells assessed as early apoptotic cells at 1 uM incubated for 48 hrs by Annexin-V-FITC/propidium iodide staining based flow cytometry (Rvb=2.88%). Type of data set: functional.
The test system of data set [10] is SMMC-7721. The experiment in a line: Cell cycle arrest in human SMMC7721 cells assessed as accumulation at G2/M phase at 4 uM incubated for 48 hrs by propidium iodide staining based flow cytometry (Rvb=16.17%). The class given is functional.
The test system of data set [11] is SMMC-7721. The experiment in a line: Induction of apoptosis in human SMMC7721 cells assessed as viable cells at 0.25 uM incubated for 48 hrs by Annexin-V-FITC/propidium iodide staining based flow cytometry (Rvb=93.5%). The following applies: SMMC-7721, 48 h, read-out: Activity. Type of data set: functional.
In data set [12] the test system is SMMC-7721. The experiment in a line: Cell cycle arrest in human SMMC7721 cells assessed as accumulation at G0/G1 phase at 0.25 uM incubated for 48 hrs by propidium iodide staining based flow cytometry (Rvb=77%). Type of data set: functional.
Data set [13] deals with SMMC-7721. The data set can be described thus: Induction of apoptosis in human SMMC7721 cells assessed as necrotic cells at 4 uM incubated for 48 hrs by Annexin-V-FITC/propidium iodide staining based flow cytometry (Rvb=1.88%). The class given is functional.
The test system of data set [14] is SMMC-7721. The experiment in a line: Cell cycle arrest in human SMMC7721 cells assessed as accumulation at G2/M phase at 0.25 uM incubated for 48 hrs by propidium iodide staining based flow cytometry (Rvb=16.17%). Type of data set: functional.
Data set [15] has as its system HCT-116. The data set can be described thus: Antiproliferative activity against human HCT116 cells assessed as reduction in cell growth at 2 uM incubated for 72 hrs by CCK-8 assay relative to control. Type of data set: functional. The conditions noted are these: HCT-116, 72 h.
Data set [16] concerns SMMC-7721. The data set can be described thus: Antiproliferative activity against human SMMC7721 cells assessed as reduction in cell growth at 2 uM incubated for 72 hrs by CCK-8 assay relative to control. The following applies: SMMC-7721, 72 h. The class given is functional.
The subject of data set [17] is SMMC-7721. The experiment in a line: Antiproliferative activity against human SMMC7721 cells assessed as reduction in cell growth at 8 uM incubated for 72 hrs by CCK-8 assay relative to control. Type of data set: functional. The conditions noted are these: SMMC-7721, 72 h.
For data set [18], the system named is A549. The data set can be described thus: Antiproliferative activity against human A549 cells assessed as reduction in cell growth at 8 uM incubated for 72 hrs by CCK-8 assay relative to control. Type of data set: functional. The conditions noted are these: A549, 72 h.
In data set [19] the target is T1, Histone deacetylase 2. The data set can be described thus: Inhibition of human recombinant His-tagged HDAC2 ([…]) expressed in baculovirus infected insect cells using FLUOR DE LYS Green as substrate preincubated for 10 mins followed by substrate addition and measured after 30 mins by fluorescence method.
For data set [20], the target named is Histone deacetylase. The experiment in a line: Inhibition of HDAC in human HeLa cell nuclear extract using fluor-de-lys-green as substrate preincubated for 10 mins followed by substrate addition and measured after 30 mins by fluorescence assay. Type of data set: cell-based.
Data set [21] deals with HeLa. The experiment in a line: Antiproliferative activity against human HeLa cells assessed as reduction in cell growth at 2 uM incubated for 72 hrs by CCK-8 assay relative to control. The class given is functional.
Data set [22] deals with A-375. The experiment in a line: Antiproliferative activity against human A375 cells assessed as reduction in cell growth at 8 uM incubated for 72 hrs by CCK-8 assay relative to control. Type of data set: functional. The conditions noted are these: A-375, 72 h.
The test system of data set [23] is A-375. The experiment in a line: Antiproliferative activity against human A375 cells assessed as reduction in cell growth at 2 uM incubated for 72 hrs by CCK-8 assay relative to control. The class given is functional. The conditions noted are these: A-375, 72 h.
In data set [24] the test system is A549. The experiment in a line: Antitumor activity against human A549 cells xenografted in BALB/C mouse assessed as tumor growth inhibition at 25 mg/kg, ip bid for 21 days measured at 3 days interval during compound dosing relative to control. The class given is functional. The following applies: read-out: TGI.
Data set [25] has as its system A549. The experiment in a line: Antitumor activity against human A549 cells xenografted in BALB/C mouse assessed as reduction in tumor size at 25 mg/kg, ip bid for 21 days measured at 3 days interval during compound dosing by visual analysis. The class given is functional, organism-based.
For data set [26], the system named is SMMC-7721. The data set can be described thus: Cell cycle arrest in human SMMC7721 cells assessed as accumulation at G2/M phase incubated for 48 hrs by propidium iodide staining-based flow cytometry. The class given is functional.
The nature of data set [27]: Toxicity in BALB/C mouse xenografted with human A549 cells assessed as reduction in body weight at 25 mg/kg, ip bid for 21 days measured at 3 days interval during compound dosing. The class given is organism-based. The following applies: in vivo.

Calls of active or inactive are those of the source. No cut-off for these calls is given here.

T1 sequence (Q92769 whole entry): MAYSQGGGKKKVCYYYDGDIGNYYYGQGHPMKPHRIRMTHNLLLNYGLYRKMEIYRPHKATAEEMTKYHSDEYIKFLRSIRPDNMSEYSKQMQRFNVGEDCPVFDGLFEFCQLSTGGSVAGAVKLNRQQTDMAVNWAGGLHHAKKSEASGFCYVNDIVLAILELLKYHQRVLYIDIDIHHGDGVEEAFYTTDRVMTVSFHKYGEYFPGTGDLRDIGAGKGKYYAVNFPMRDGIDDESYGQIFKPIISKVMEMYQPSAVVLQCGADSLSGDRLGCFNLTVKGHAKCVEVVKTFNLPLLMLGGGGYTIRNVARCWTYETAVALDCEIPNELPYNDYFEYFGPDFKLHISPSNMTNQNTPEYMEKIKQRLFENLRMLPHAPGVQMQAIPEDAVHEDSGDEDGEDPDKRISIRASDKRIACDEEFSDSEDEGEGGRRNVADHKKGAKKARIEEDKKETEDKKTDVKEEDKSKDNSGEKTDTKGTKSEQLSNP

Turning to `Cn1c(SCc2ccc(C(=O)Nc3ccccc3N)cc2)nc2cc(Br)ccc2c1=O`, the inhibition result in data set [1] was “Active”. The Activity result in data set [2] was “Dose-dependent effect”; in data set [3], 33.8%; in data set [6], 51.4%; in [8] it was 9.88%; in [9] it was 3.12%; in [10], 19.19%. Further, the Activity in [12] turned out to be 65.59%; in data set [13], 15.1%; in data set [14], 18.88%. Besides, the inhibition entry in data set [4] is “Dose-dependent effect”. Also, the inhibition at 2 µM in data set [5] was determined as 37.5%; in data set [15], 72.4%; in data set [16] it was 35.6%; in data set [21] it was 32.3%; in data set [23], 34.5%. The inhibition at 8 µM in data set [7] is 88.4%; in data set [17], 70.6%; in data set [18], 66.2%; in data set [22], 72.9%. Moreover, the viability at 0.25 µM in data set [11] is 79.4%. The 50% inhibitory concentration (IC50) in data set [19] is 530 nM; in [20] it was 4940 nM.
On to `COc1ccc2c(=O)n(C)c(SCc3ccc(C(=O)Nc4ccccc4N)cc3)nc2c1`, for which, in data set [1], the inhibition result is “Active”. The Activity in [3] is listed as 45.4%; in data set [6] it was 54.8%; in [8] it was 18.9%; in [9], 11.6%; in [10], 31.22%; in data set [12] it was 67.11%. The Activity was 10.6% in data set [13], “Dose-dependent effect” in [26], 11.67% in data set [14] and “Non-Toxic” in data set [27]. The inhibition result in [4] was “Dose-dependent effect”. For the same molecule, the inhibition at 2 µM in data set [5] was 38%; in data set [15], 73.1%; in data set [16], 68.8%; in data set [21], 57.5%; in [23] it was 52.2%. In addition, the inhibition at 8 µM in data set [7] was 91.8%; in data set [17] it was 79.3%; in [18], 82.8%; in [22], 89.4%. Moreover, the inhibition in vivo at 25 mg/kg in [24] is 62.5%. For the same molecule, the viability at 0.25 µM in data set [11] was 66%. The outcome in data set [25] was Active. For the same molecule, the half-inhibitory concentration (IC50) in data set [19] turned out to be 160 nM; in data set [20] it was 990 nM.
Regarding `CCn1c(SCc2ccc(/C=C/C(=O)Nc3ccccc3N)cc2)nc2cc(OC)ccc2c1=O`, the inhibition result in [1] is “Active”. For the same molecule, the Activity result was “Dose-dependent effect” in data set [2]; 28.8% in data set [3]; 38.2% in data set [6]; 9.65% in [8]; 16.4% in data set [9]; 17.68% in data set [10]. Moreover, the Activity in [12] worked out at 61.58%; in data set [13], 10%; in data set [14], 17.67%. In addition, the inhibition entry in data set [4] is “Dose-dependent effect”. The inhibition at 2 µM in [5] came out at 18.6%; in [15], 67.3%; in data set [16], 56.8%; in data set [21], 24%; in [23], 55%. The inhibition at 8 µM came to 80.5% in [7], 79.7% in data set [17], 78.2% in data set [18] and 89.5% in [22]. For the same molecule, the viability at 0.25 µM in data set [11] was found to be 79.3%. In addition, the half-inhibitory concentration (IC50) in data set [19] amounted to 180 nM.
Take `COc1ccc2c(=O)n(-c3ccccc3Cl)c(SCc3ccc(C(=O)Nc4ccccc4N)cc3)nc2c1`: the inhibition entry in data set [1] was “Active”. In addition, the Activity result in data set [2] was “Dose-dependent effect”; in data set [3], 19.1%; in [6], 20.4%; in data set [8] it was 13.1%; in data set [9], 7.67%; in data set [10] it was 27.3%. Besides, the Activity in data set [12] is 48.75%; in data set [13] it was 8.28%; in [14] it was 31.29%. Also, the inhibition entry in data set [4] is “Dose-dependent effect”. Besides, the inhibition at 2 µM in data set [5] turned out to be 52.5%; in [15] it was 43.7%; in data set [16] it was 50.4%; in data set [21], 54.4%; in data set [23], 41.8%. Moreover, the inhibition at 8 µM in [7] turned out to be 83.3%; in [17], 84.1%; in data set [18], 80.6%; in data set [22], 78.7%. The viability at 0.25 µM in [11] came out at 68.3%. The half-maximal inhibitory concentration (IC50) in [19] is 610 nM; in data set [20] it was 830 nM.

For the origin of these results see ChEMBL document CHEMBL4393680, “Design, synthesis and biological evaluation of novel thioquinazolinone-based 2-aminobenzamide derivatives as potent histone deacetylase (HDAC) inhibitors” (Eur J Med Chem, 2019).
